The source of these data is patent US20260297031A1, “HYDROXYLAMINE-BASED BCR-ABL1 INHIBITORS FOR TREATMENT OF CANCER” (University of Georgia Research Foundation, Inc., priority 2023, published 2026).

The test system of data set [1] is P-glycoprotein (P-gp) and/or breast cancer resistance protein (BCRP). The following applies: cited from earlier work.
Data set [2] can be described thus: Metabolic stability in human hepatocytes. Particulars: for remaining at 0.5 min / remaining at 0.5 h / remaining at 1 h / remaining at 2 h: hepatocytes. The procedure: Metabolic Stability in Hepatocytes (Independently Performed by Pharmaron Inc., Ninqbo, CN)
After thawing was complete, hepatocytes were transferred into a 50 mL conical tube containing thawing medium and the tube was then placed into a centrifuge and spun at 100 g for 10 min. […] Using AO/PI staining, cells were counted to determine the viable cell density. […] Subsequently, 2 μL of the 100 μM test compounds or control compound solutions was transferred into the respective wells of the 96-well non-coated plate to start the reaction. […] Aliquots of 100 μL of the supernatant were then diluted by 100 μL of ultra-pure water, and the mixture was analyzed by LC-MS/MS.
All calculations were carried out using Microsoft Excel. Peak areas were determined from extracted ion chromatograms. The in-vitro half-life (t1/2) of parent compound was determined by regression of the percent parent disappearance vs. time curve.

Data set [3] deals with T1, BCR-ABL1 M351T (Homo sapiens, UniProt P00519, M351T).
T1 construct: BCR (fusion partner, as the printed name BCR-ABL1 says)
The data set is described as follows: KinaseProfiler radiometric kinase assay, BCR-ABL1 M351T. The format is biochemical. The following applies: [ATP] = 10 μM; mean of n = 2.

Data set [4] concerns the target T2, BCR-ABL1 Q252H (Homo sapiens, UniProt P00519, Q252H).
T2 construct: BCR (fusion partner, as the printed name BCR-ABL1 says)
Briefly: KinaseProfiler radiometric kinase assay, BCR-ABL1 Q252H. The format is biochemical. The following applies: [ATP] = 10 μM; mean of n = 2.

The target in data set [5] is cSRC (Homo sapiens, UniProt P12931). The data set is described as follows: KinaseProfiler radiometric kinase assay, cSRC wt. The format is biochemical. Particulars: for IC50: [ATP] = 10 μM, mean of n = 2.
Data set [6] deals with mutant BCR-ABL1. The data set is described as follows: KinaseProfiler radiometric kinase assay, mutant BCR-ABL1 kinases as a group. The format is biochemical, human. An excerpt:
Biochemical Human RTK Kinase Enzymatic Radiometric Assay, KinaseProfiler (Independently Performed by Eurofins Cerep SA, FR)

A short description of data set [7]: Plasma protein binding by equilibrium dialysis, human plasma. The class given is in vitro ADME. Particulars: human plasma; for % Unbound: 360 min, 5 µM. The procedure: Plasma Protein Binding by Equilibrium Dialysis (Independently Performed by Pharmaron Inc., Ninqbo, CN)
Initially, 1 mM solutions of test compounds and the control compound (Ketoconzaole) were prepared in DMSO. After this, dialysis membranes were soaked in ultrapure water for 60 min to separate strips, followed by 20% aq. ethanol for 20 min, and finally in a dialysis buffer for 20 min. […] After this, 597 μL of blank plasma solution followed by 3 μL of the working solutions of either test compounds or control compound were added to a new plastic plate or separate plastic tube and the solutions were vortexed at 1,000 rpm for 2 min. Immediately after this, 50 μL of spiked plasma solution suspension was transferred to a 96-well plate to act as T=0 control. The remaining samples were treated in the same manner, whereby all remaining spiked plasma solutions were added to the incubator for the duration of the study.
Cells were then loaded with 120 μL of the plasma samples and dialyzed against an equal volume of dialysis buffer (PBS). […] At the end of incubation, the lid was removed and 50 μL of post-dialysis samples were removed from both buffer and plasma solution chambers into a separate 96-well plate for analysis. The plasma solutions (50 μL) were then added to the buffer samples along with an equal volume of PBS (50 μL) to the collected plasma solution samples. The plate was shaken at 1,000 rpm for 2 min and 400 μL of acetonitrile containing an appropriate internal standard was added to precipitate protein and release compound. The samples were then vortexed at 1,000 rpm for an additional 10 min followed by centrifugation at 3,220 g for 30 min. Supernatant (250 μL) was then added to a new 96-well plate and centrifuged again at 3,220 g for 30 min and 100 μL of this supernatant was then added to a new 96-well plate for analysis. The samples were analyzed by LC-MS/MS and 100 μL of distilled water was added to each sample prior to analysis.
Concentrations of test compounds and control compound in buffer and plasma solution chambers was determined and percentages of test compounds and control compound bound using the following equations (mean of n=2 replicates): […]
On the technique in general: Equilibrium dialysis compares concentrations on both sides of a semipermeable membrane.

The subject of data set [8] is Caco-2 cells. Briefly: Caco-2 permeability. The following applies: Papp (b − a/a − b). The procedure:
Caco-2 Permeability (Independently Performed by Pharmaron Inc., Ningbo, CN)
To each well of the Transwell insert and reservoir were added 50 μL and 25 mL of cell culture medium, respectively. […] Following this, the Caco-2 plate was removed from the incubator and the monolayer washed twice with pre-warmed HBSS (10 mM HEPES, pH 7.4).
To determine the rate of drug transport in the apical to basolateral direction, 125 μL of the working solution of either test compounds or control compounds was added to the Transwell insert (apical compartment) and a 50 μL sample was immediately transported from the apical compartment to 200 μL of acetonitrile containing internal standard (100 nM alprazolam, 200 nM Caffeine and 100 nM tolbutamide) in a new 96-well plate as the initial donor sample (A-B). The sample was then vortexed at 1,000 rpm for 10 min. The receiver plate (basolateral compartment) wells were then filled with 235 μL of transport buffer. To determine the rate of drug transport in the basolateral to apical direction, 285 μL of the working solution of either test compounds or control compounds was added to the receiver plate wells (basolateral compartment) and a 50 μL sample was immediately transferred from the basolateral compartment to 200 μL of acetonitrile containing internal standard in a new 96-well plate as the initial donor sample (B-A). The sample was vortexed at 1,000 rpm for 10 min. The Transwell insert (apical compartment) was then filled with 75 μL of transport buffer and the apical to basolateral direction and the basolateral to apical direction were done at the same time. […] After incubation, 50 μL samples from donor sides (apical compartment for Ap→BI flux, and basolateral compartment for BI→Ap) and receiver sides (basolateral compartment for Ap→BI flux, and apical compartment for BI→Ap) were transferred to wells of a new 96-well plate, followed by the addition of 200 μL acetonitrile containing internal standard. All samples were vortexed for 10 min and then centrifuged at 3,220 g for 40 min. A 150 μL aliquot of the supernatant was then mixed with an appropriate volume of ultra-pure water prior to LC-MS/MS analysis.
To monitor for monolayer integrity, Lucifer yellow leakage was determined after the 2 h transport period. This began by preparing a stock solution of Lucifer yellow in DMSO which was diluted with HBSS (10 mM HEPES, pH 7.4.) to reach a final concentration of 100 μM. To each Transwell insert (apical compartment) was then added 100 μL of the Lucifer yellow solution, followed by filling the wells in the receiver plate (basolateral compartment) with 300 μL of HBSS (10 mM HEPES, pH 7.4).
(§1) The efflux ratio was determined using the following equation: […]

In data set [9] the test system is MDCKII-MDR1 cells. Briefly: MDCKII-MDR1 permeability. Particulars: MDCKII-MDR1. The procedure:
MDCKII-MDR1 Permeability (Independently Performed By: Pharmaron Inc., Ninqbo, CN)
To each well of the Transwell insert and reservoir were added 50 μL and 25 mL of cell culture medium, respectively.
To determine the rate of drug transport in the apical to basolateral direction, 125 μL of the working solution of either test compounds or control compounds was added to the Transwell insert (apical compartment) and a 50 μL sample was immediately transferred from the apical compartment to 200 μL of acetonitrile containing internal standard (100 nM alprazolam, 200 nM caffeine, and 100 nM tolbutamide) in a new 96-well plate as the initial donor sample (A-B). The sample was then vortexed at 1,000 rpm for 10 min. The receiver plate (basolateral compartment) wells were then filled with 235 μL transport buffer. To determine the rate of drug transport in the basolateral to apical direction, 285 μL of the working solution of either test compounds or control compounds was added to the receiver plate (basolateral compartment) wells and a 50 μL of sample was immediately transferred from the basolateral compartment to 200 μL of acetonitrile containing internal standard in a new 96-well plate as the initial donor sample (B-A). The sample was vortexed for 10 min at 1,000 rpm. The Transwell insert (apical compartment) was then filled with 75 μL of transport buffer and the apical to basolateral direction and the basolateral to apical direction were done at the same time. […] After incubation, 50 μL samples from donor sides (apical compartment for Ap→BI flux, and basolateral compartment BI→Ap) and receiver sides (basolateral compartment for Ap→BI flux, and apical compartment for BI→Ap) were transferred to wells of a new 96-well plate, followed by the addition of 200 μL acetonitrile containing internal standard. […] An aliquot of 100 μL of the supernatant was mixed with an appropriate volume of ultra-pure water before LC-MS/MS analysis.
To monitor for monolayer integrity, Lucifer yellow leakage was determined after the 2 h transport period. This began by preparing a stock solution of Lucifer yellow in DMSO and diluted with HBSS (10 mM HEPES, pH 7.4.) to reach a final concentration of 100 μM. To each Transwell insert (apical compartment) was then added 100 μL of the Lucifer yellow solution, followed by filling the wells in the receiver plate (basolateral compartment) with 300 μL of HBSS (10 mM HEPES, pH 7.4).
as §1

Data set [10] has as its target hERG channel (Homo sapiens, UniProt Q12809). On the set-up: expressed in transfected cells; host or cells: HEK 293. Particulars: cited from earlier work.
The nature of data set [11]: Metabolic stability in mouse hepatocytes. The format is in vitro ADME. Particulars: read-out: Remaining Percentages. The method, then: All calculations were carried out using Microsoft Excel. Peak areas were determined from extracted ion chromatograms.

Entries after “also recorded” stand apart in the source; their conditions may differ. A value given as a limit tells only on which side of the number the result lay.

Chain of cSRC (P12931 whole entry): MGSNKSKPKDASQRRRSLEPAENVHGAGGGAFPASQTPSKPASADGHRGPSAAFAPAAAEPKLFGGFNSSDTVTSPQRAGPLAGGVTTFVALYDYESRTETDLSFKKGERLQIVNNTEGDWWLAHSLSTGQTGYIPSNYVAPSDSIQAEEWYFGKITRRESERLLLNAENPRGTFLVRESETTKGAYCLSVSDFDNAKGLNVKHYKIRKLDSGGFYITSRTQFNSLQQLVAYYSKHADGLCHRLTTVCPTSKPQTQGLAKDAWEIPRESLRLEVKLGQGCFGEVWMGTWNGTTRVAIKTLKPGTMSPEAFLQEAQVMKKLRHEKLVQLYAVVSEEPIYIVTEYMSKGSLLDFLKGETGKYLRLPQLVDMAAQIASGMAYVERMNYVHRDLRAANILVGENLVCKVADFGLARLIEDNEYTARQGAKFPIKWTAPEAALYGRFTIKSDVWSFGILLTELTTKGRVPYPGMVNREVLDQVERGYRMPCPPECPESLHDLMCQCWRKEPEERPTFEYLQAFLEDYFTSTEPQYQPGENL
Chain of hERG channel (Q12809 whole entry): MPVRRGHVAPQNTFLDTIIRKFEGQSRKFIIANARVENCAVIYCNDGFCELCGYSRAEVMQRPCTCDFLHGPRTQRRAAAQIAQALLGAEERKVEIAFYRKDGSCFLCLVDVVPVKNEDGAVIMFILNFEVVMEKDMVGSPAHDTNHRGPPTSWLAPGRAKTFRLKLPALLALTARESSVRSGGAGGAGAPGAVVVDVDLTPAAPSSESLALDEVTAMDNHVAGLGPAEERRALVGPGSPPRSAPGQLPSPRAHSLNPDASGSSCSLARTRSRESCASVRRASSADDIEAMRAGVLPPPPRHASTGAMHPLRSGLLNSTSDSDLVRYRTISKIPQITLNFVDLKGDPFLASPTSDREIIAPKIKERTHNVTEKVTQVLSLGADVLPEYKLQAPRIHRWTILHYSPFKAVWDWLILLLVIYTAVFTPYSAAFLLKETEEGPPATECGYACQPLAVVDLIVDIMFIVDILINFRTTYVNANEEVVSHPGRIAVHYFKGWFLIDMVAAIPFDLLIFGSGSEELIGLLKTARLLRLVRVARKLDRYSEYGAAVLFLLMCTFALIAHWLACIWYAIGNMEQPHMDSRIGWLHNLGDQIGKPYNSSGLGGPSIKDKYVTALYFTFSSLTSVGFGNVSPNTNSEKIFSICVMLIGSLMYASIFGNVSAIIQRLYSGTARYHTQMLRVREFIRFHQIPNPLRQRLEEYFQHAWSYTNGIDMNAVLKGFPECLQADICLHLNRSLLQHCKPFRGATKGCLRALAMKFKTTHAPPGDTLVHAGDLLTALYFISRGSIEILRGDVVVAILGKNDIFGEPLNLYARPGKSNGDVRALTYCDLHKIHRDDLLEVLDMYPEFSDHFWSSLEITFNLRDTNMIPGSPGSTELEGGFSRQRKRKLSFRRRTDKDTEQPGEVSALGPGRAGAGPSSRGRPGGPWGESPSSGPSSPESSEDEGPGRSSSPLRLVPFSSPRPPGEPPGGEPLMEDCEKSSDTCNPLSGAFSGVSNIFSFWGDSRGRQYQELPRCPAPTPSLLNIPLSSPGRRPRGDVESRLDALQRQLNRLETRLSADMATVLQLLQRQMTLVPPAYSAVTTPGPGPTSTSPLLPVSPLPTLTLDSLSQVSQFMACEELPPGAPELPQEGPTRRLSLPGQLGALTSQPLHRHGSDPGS

Take `O=C(Nc1ccc(OC(F)(F)Cl)cc1)c1cnc(N2CC[C@@H](O)C2)c(-c2ccn[nH]2)c1` [Asciminib, asciminib]: the “efflux transporter substrate (background)” value in data set [1] is “P-gp substrates; also recorded: potent substrates for efflux transporters”.
The share remaining is what is left of the initial amount, in per cent. On to `COc1cc2c(Nc3cccc(Cl)c3F)c(C#N)cnc2cc1OCCON1CCN(C)CC1` [Compound 16, 4-((3-Chloro-2-flurophenyl)amino)-6-methoxy-7-(2-((4-methylpiperazin-1-yl)oxy)ethoxy)quinoline-3-carbonitrile], for which, in data set [2], the amount remaining at 0.5 min was found to be 100%, the share remaining at 0.5 h was 66.9%, the amount remaining at 1 h came to 45.1% and the share remaining at 2 h amounted to 18.6%.
`COc1cc2c(Nc3cccc(OC)c3F)c(C#N)cnc2cc1OCCON1CCN(C)CC1` [Compound 18, 4-((2-Fluoro-3-methoxyphenyl)amino)-6-methoxy-7-(2-((4-methylpiperazin-1-yl)oxy)ethoxy)quinoline-3-carbonitrile] returned an IC50 in data set [3] of 24 nM. Further, the IC50 in data set [4] is 30 nM. In data set [5], this compound gave an IC50 of 34 nM. The IC50 in [6] (read-out: IC50 against (imatinib resistant / relevant) mutant BCR-ABL1 kinases, group of mutants) is at least 15 nM. For the same compound, the “% Unbound” value in [7] worked out at 12.97%. Further, in [2], the amount remaining at 0.5 min was determined as 100%, the fraction remaining at 0.5 h was 95.7%, the fraction remaining at 1 h worked out at 80.4% and the fraction remaining at 2 h worked out at 54.9%. Also, in data set [8], the “Efflux Ratio” value was 12.36.
In data set [3], `COc1cc(Nc2c(C#N)cnc3cc(OCCON4CCN(C)CC4)c(OC)cc23)ccc1Cl` [Compound 19] returned an IC50 of 1 nM. In addition, in [5], the IC50 stood at 2 nM. Moreover, in data set [2], the “stability in hepatocytes, in words” value is given as “good stability in human hepatocytes”; the fraction remaining at 0.5 min came out at 100%; the amount remaining at 0.5 h was determined as 68.1%; the share remaining at 1 h is 50.2%. In data set [2], this compound returned a share remaining at 2 h of 25.5%. In data set [9], the “efflux (P-gp), in words” value is given as “reduced efflux ratios” and the “permeability in MDCKII-MDR1 cells, in words” value is given as “markedly improved permeability”.
For the compound `COc1cc2c(Nc3ccc(Cl)c(OC)n3)c(C#N)cnc2cc1OCCON1CCN(C)CC1` [Compound 21, 4-((5-Chloro-6-methoxypyridin-2-yl)amino)-6-methoxy-7-(2-((4-methylpiperazin-1-yl)oxy)ethoxy)quinoline-3-carbonitrile], the “cSRC kinase activity, in words” value in data set [5] is recorded as “excellent activity”. Also, the “BCR-ABL1 kinase activity, in words” value in data set [6] is reported as “excellent activity”.
On to `Cc1nc(Nc2ncc(C(=O)Nc3c(C)cccc3Cl)s2)cc(N2CCN(CCO)CC2)n1` [Dasatinib, dasatinib], for which the “efflux transporter substrate (background)” value in data set [1] is “P-gp substrates; also recorded: potent substrates for efflux transporters”. Besides, the “hERG liability, in words (background)” value in [10] is “reduced affinity for the hERG ion channel”.
Regarding `CC(=O)N1CCN(c2ccc(OCC3COC(Cn4ccnc4)(c4ccc(Cl)cc4Cl)O3)cc2)CC1` (stereo not shown) [Ketoconazole], in [7], the “% Unbound” value is 0.80%. For the same compound, the fraction unbound at 6 h, 5 µM in data set [7] (read-out: % Bound (converted)) was 0.008.
On to `Cc1cn(-c2cc(NC(=O)c3ccc(C)c(Nc4nccc(-c5cccnc5)n4)c3)cc(C(F)(F)F)c2)cn1` [Nilotinib, nilotinib], for which, in [10], the “hERG liability, in words (background)” value is on record as “inhibition of the human Ether-b-go-go-Related Gene (hERG) potassium ion channel”.
For `COc1ccc(CCN(C)CCCC(C#N)(c2ccc(OC)c(OC)c2)C(C)C)cc1OC` (stereo not shown) [Verapamil, reference compound], the fraction remaining at 0.5 h was determined as 35.6% in [2] and 4.39% in data set [11] (30 min). The fraction remaining at 1 h turned out to be 17.7% in data set [2] and 1.24% in [11] (60 min). Moreover, the share remaining at 2 h in [2] came out at 4.83%. Also, in data set [11] (15 min), the fraction remaining at […] was 16.7%.
